Laboratory results reported in US9220723B2, “Cancer therapy” (BRANDEIS UNIVERSITY, priority 2010, dated 2015).

Legend:
[1] = system: NIH3T3 cells expressing the GFP-NRASD12 fusion protein; assay: Confocal localization of GFP-NRASD12 after DHHC9 siRNA transfection; format: cell-based; conditions: confocal microscopy
Procedure: (§1) (A) Relative DHHC9 (SEQ ID NO: 10) mRNA levels in NIH3T3 cells transfected by either DHHC9 (SEQ ID NO: 10) siRNA or control siRNA were determined by real-time RT-PCR. (B) GFP-NRASD12 expressing NIH3T3 cells transfected by either DHHC9 (SEQ ID NO: 10) siRNA or control siRNA were visualized by confocal microscope. Original magnification was 630×.
(§2) To determine the role of DHHC9 (SEQ ID NO: 10) in NRAS biology, we first examined the effect of DHHC9 (SEQ ID NO: 10) downregulation on cellular localization of oncogenic NRAS (NRASD12). RNA interference (RNAi) is a powerful tool for gene function studies and holds promise for the development of new molecular medicines. RNAi usually downregulate but often not abolish the target mRNAs, which mimic therapies more than gene-knockout. In addition, since DHHC9 (SEQ ID NO: 10) may have substrates other than RAS, knocking out the DHHC9 (SEQ ID NO: 10) gene might be toxic to cells. For these reasons we tested several small interference RNA (siRNA) specific to murine DHHC9 (SEQ ID NO: 10) for their ability to downregulate the DHHC9 (SEQ ID NO: 10) mRNA. […] Still further, the present invention provides systems for identifying cancer patients likely to respond to therapy that includes administration of one or more palmitoyl-acyl transferase inhibitors.

murine DHHC9 mRNA = assay: Real-time RT-PCR of DHHC9 mRNA after siRNA transfection; format: cell-based; conditions: NIH3T3 cells, compared to scrambled siRNA
Procedure: as §1, §2

[2] = caused by highly reactive epoxy group; cited from earlier work
[3] = system: NRASD12 expressing NIH3T3 cells; assay: Immunofluorescence localization of NRASD12 after FASN inhibitor treatment; format: cell-based; conditions: 1 uM, 3 hrs post-treatment, anti-myc-tag immunofluorescence
Procedure: Localization of myc-tagged NRASD12 in MSCV-GFP-ires-2xmycNRASD12 infected NIH3T3 cells 3 hrs post-treatment with 1 uM cerulenin or 1 uM C75. NRASD12 were visualized by confocal microscope after probing with anti-myc-tag (9E10) antibody overnight at 4° C. and AlexaFluor-conjugated secondary antibody (red).
As a proof of principle studies of the effect of FASN inhibitors on NRAS palmitoylation/localization, we examined the effect of cerulenin and C75 on NRASD12 expressing NIH3T3 cells.

[4] = mouse, in vivo; cited from earlier work
FASN = assay: Western blot of FASN expression after FASN miRNA transduction; format: cell-based; conditions: NIH3T3 cell lines, puromycin selected (data not shown)
Source text: (§3) We then examined the effect of knocking down FASN expression on RAS localization by the RNA interference (RNAi) approach. RNAi is endogenously mediated by microRNA (miRNA) ^30. miRNAs are generated from primary transcripts (pri-miRNAs) and processed into pre-miRNA and eventually mature miRNA. Artificial miRNAs are natural pri-miRNA in which the stem sequence of a miRNA has been substituted with a sequence targeting the gene of interest. In target cells, artificial miRNA undergoes the same processing steps of the parental pri-miRNA. A FASN specific small hairpin (sh) RNA (Open-Biosystems) was cloned into a MSCV-based retroviral shRNAmir (pSM2; Open-Biosystems) vector to generate an artificial miRNA for FASN (the cloning oligo for the FASN shRNA: 5′ TGCTGTTGACAGTGAGCGCCGCTTCTTAGAGATTGGCAAATAGTGAAGCCACAGATGTATTTGCCAATCTCTAAGAAGCGATGCCTACTGCCTCGGA 3′ (SEQ ID NO: 35)). The miRNA is under the control a U6 promoter and the vector includes a puromycin resistance gene under the control of phosphoglycerate kinase (PGK) eukaryotic promoter ^31. A scrambled shRNA (the cloning oligo: 5′ TGCTGTTGACAGTGAGCGCTTCCTCTCTTTCTCTCCCTTTA GTGAAGCCACAGATGTACAAGGGAGAGAAAGAGAGGAAGGATGCCTACTGCCTCGGA 3′ (SEQ ID NO: 36)) was similarly cloned into pSM2 as a control. […]

[5] = system: NIH3T3 cells expressing GFP-KRAS4BD12; assay: Confocal localization of GFP-KRAS4BD12 after FASN miRNA transduction; format: cell-based; conditions: confocal microscopy
Source text: (§4) Fixed and permeablized cells were stained with an anti-BIP antibody, followed by an alexafluor 635-conjugated secondary antibody, and visualized on a Leica TCS SP2 Spectral Confocal Microscope. Original magnification was 630×.
as §3, with “^31.” for “^31. A scrambled shRNA (the cloning oligo: 5′ TGCTGTTGACAGTGAGCGCTTCCTCTCTTTCTCTCCCTTTA GTGAAGCCACAGATGTACAAGGGAGAGAAAGAGAGGAAGGATGCCTACTGCCTCGGA 3′ (SEQ ID NO: 36)) was similarly cloned into pSM2 as a control.”

3T3-GFP-NRASD12 cells = assay: Confocal localization of GFP-NRASD12 after FASN miRNA transduction; format: cell-based; conditions: confocal microscopy
Source text: as §4
as §3, with “^31.” for “^31. A scrambled shRNA (the cloning oligo: 5′ TGCTGTTGACAGTGAGCGCTTCCTCTCTTTCTCTCCCTTTA GTGAAGCCACAGATGTACAAGGGAGAGAAAGAGAGGAAGGATGCCTACTGCCTCGGA 3′ (SEQ ID NO: 36)) was similarly cloned into pSM2 as a control.”

3T3-NRASD12 cells = assay: Cell morphology and foci (sphere) formation, 3T3-NRASD12; format: cell-based; conditions: 3T3-NRASD12 cells cultured for 6 days
Procedure: (§5) FIG. 16 illustrates the morphology of cultured NIH3T3 cells stably expressing the proteins and miRNAs indicated. Equal numbers (5×10^5) of cells were plated onto 100-mm plates after puromycin selection and were cultured for 6 days before representative pictures were taken (original magnification 100×)
(§6) Both 3T3-NRASD12 ^28 and 3T3-KRAS4BD12 form sphere-like foci in culture, while 3T3-MiG cells grow as normal NIH3T3 cells (FIG. 16). […] We plated equal cell numbers of scrambled or FASN miRNA-transduced, puromycin-selected 3T3-NRASD12 or 3T3-KRASD12 cell lines cultured for 6 days and observed cell morphology and foci formation (FIG. 16). […] However, these cells had somewhat altered morphology, similar to those observed in 3T3-NRASD12^C181S cells.

3T3-KRASD12 cells = assay: Cell morphology and foci (sphere) formation, 3T3-KRASD12; format: cell-based; conditions: 3T3-KRASD12 cells cultured for 6 days
Procedure: as §5, §6

DHHC9 siRNA: siRNA specific to murine DHHC9; sense SEQ ID NO: 37, antisense SEQ ID NO: 38 (sense GGAAGAAGAACUAUGUAUUAUAUGT; antisense ACAUAUAAUACAUAGUUCUUCUUCCCU; chemistry not given here)
localization of GFP-NRASD12 [1]: mislocalization of GFP-NRASD12 to internal membranes | levels of DHHC9 mRNA (murine DHHC9 mRNA): dramatically reduced

C/C=C/C/C=C/CCC(=O)[C@H]1O[C@H]1C(N)=O [cerulenin, Cerulenin]
stability [2]: innate instability | localization of NRASD12 [3]: mislocalized to internal membranes

C=C1C(=O)OC(CCCCCCCC)C1C(=O)O (centres unmarked) [C75]
effects of treatment on metabolism, weight and feeding [4]: increased metabolism, rapid and significant weight loss, and fasting | localization of NRASD12 [3]: mislocalized to internal membranes

B1: FASN miRNA: FASN specific small hairpin RNA (Open-Biosystems) cloned into pSM2 retroviral shRNAmir vector; cloning oligo SEQ ID NO: 35 (nucleic acid)
DNA: TGCTGTTGACAGTGAGCGCCGCTTCTTAGAGATTGGCAAATAGTGAAGCCACAGATGTATTTGCCAATCTCTAAGAAGCGATGCCTACTGCCTCGGA
FASN expression (FASN): largely abolished | localization of GFP-KRAS4BD12 [5]: localized to both the plasma membrane and internal membranes | localization of GFP-NRAS (3T3-GFP-NRASD12 cells): mislocalized to endomembranes | sphere (foci) formation (3T3-NRASD12 cells): no longer formed spheres | sphere (foci) formation (3T3-KRASD12 cells): formed spheres
